According to ChEMBL document CHEMBL4342470, “Detection of Active Granzyme A in NK92 Cells with Fluorescent Activity-Based Probe” (J Med Chem, 2020):

Columns and labels:
Type in all cases: cell-based
Settings in all cases: mda-mb-231, 24 h
[1] = tested on: MDA-MB-231; experiment: Toxicity in human MDA-MB-231 cells assessed as reduction in cell viability at >1 uM incubated for 24 hrs by MTS assay
[2] = tested on: MDA-MB-231; experiment: Toxicity in human MDA-MB-231 cells assessed as reduction in cell viability at <1 uM incubated for 24 hrs by MTS assay
[3] = tested on: MDA-MB-231; experiment: Toxicity in human MDA-MB-231 cells assessed as reduction in cell viability at 10 uM incubated for 24 hrs by MTS assay

Row | SMILES | Activity [1] | Activity [2] | Activity [3]
1 | CN1\C(=C/C=C/C=C/C2N(CCCCCC(=O)NCCCCCC(=O)N3Cc4ccccc4C[C@H]3C(=O)NCC(=O)N3C4CCCCC4C[C@H]3C(=O)NC(CCCNC(=N)N)P(=O)(Oc3ccccc3)Oc3ccccc3)c3ccccc3C2(C)C)C(C)(C)c2ccccc21 (stereo partly drawn) | Toxic | Non-Toxic | –
2 | COC(=O)CCC(=O)N1Cc2ccccc2C[C@H]1C(=O)NCC(=O)N1C2CCCCC2C[C@H]1C(=O)NC(CCCNC(=N)N)P(=O)(Oc1ccccc1)Oc1ccccc1 (stereo partly drawn) | – | – | Non-Toxic
